The results in this text go back to paper PMC5520195 (Acta Pharmacologica Sinica, 2017).

Data set [1] can be described thus: Plasma pharmacokinetics of DOX after iv administration. The following applies: DOX in plasma, BALB/c mice, 5 mg DOX/kg. It counts as in vivo.
For data set [2], the system named is 4T1.2 mouse breast cancer cells. Kind of data set: MTT cytotoxicity assay. It counts as cell-based. The following applies: 4T1.2 cells, 72 h.

In general, Cmax refers to the peak of the concentration-time curve.

Take `COc1cccc2c1C(=O)c1c(O)c3c(c(O)c1C2=O)C[C@@](O)(C(=O)CO)C[C@@H]3O[C@H]1C[C@H](N)[C@H](O)[C@H](C)O1` [DOX, doxorubicin]: in data set [1], the “AUC0–infinity” value is 2930 ng·h/mL, the CL was found to be 28.8 mL/min/kg and the Cmax was determined as 6270 ng/mL. Further, the “cytotoxicity (MTT)” value in data set [2] is reported as “cytotoxic effect on tumor cells in a concentration-dependent manner”.
